Measurements as given in publication PMC10382584, “Macrocyclization of linear molecules by deep learning to facilitate macrocyclic drug candidates discovery” (Nature Communications, 2023).

Legend:
Experiment in all cases: biochemical
Parameters in all cases: DiscoveRx KINOMEscan competition binding, percent of DMSO control signal at 100 nM
Conditions in all cases: read-out: Fig. 4a / Percent Control / Compound 1; percent of DMSO control, competition binding
DAPK3 = DAPK3 (Homo sapiens, UniProt O43293)
SIK = molecular target: T1, SIK (Homo sapiens, UniProt P57059)
T1 construct: gene SIK1

ERK8 = molecular target: T2, ERK8 (Homo sapiens, UniProt Q8TD08)
T2 construct: gene MAPK15
T2 sequence (Q8TD08 whole entry): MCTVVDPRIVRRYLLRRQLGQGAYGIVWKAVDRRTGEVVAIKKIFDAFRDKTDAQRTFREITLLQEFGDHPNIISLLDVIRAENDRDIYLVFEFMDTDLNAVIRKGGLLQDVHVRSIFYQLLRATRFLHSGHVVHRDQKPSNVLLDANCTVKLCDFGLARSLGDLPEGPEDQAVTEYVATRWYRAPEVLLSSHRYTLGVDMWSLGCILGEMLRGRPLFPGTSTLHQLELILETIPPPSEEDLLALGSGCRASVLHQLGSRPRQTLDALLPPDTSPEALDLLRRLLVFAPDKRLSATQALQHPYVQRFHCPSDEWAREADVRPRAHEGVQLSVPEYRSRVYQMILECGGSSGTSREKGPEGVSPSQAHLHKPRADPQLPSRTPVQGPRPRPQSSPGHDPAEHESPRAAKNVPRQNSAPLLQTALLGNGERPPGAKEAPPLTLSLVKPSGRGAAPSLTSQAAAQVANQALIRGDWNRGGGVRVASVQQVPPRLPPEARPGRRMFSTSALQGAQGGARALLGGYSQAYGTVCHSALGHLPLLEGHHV

FLT3(ITD) = FLT3(ITD) (Homo sapiens, UniProt P36888, ITD)
MKNK1 = MKNK1 (Homo sapiens, UniProt Q9BUB5)
Chain of MKNK1 (Q9BUB5 whole entry): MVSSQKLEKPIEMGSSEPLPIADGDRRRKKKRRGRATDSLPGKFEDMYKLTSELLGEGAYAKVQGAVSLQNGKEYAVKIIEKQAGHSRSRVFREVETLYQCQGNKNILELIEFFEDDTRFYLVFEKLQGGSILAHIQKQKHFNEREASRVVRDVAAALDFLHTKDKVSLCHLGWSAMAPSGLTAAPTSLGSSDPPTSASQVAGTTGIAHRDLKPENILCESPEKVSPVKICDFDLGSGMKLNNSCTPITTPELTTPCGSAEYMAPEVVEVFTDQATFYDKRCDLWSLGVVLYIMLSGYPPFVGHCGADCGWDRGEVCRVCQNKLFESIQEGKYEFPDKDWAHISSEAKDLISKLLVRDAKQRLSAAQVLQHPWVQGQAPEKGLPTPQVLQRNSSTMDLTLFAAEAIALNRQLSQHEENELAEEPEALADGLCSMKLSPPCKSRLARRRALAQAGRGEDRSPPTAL

PRKX = PRKX (Homo sapiens, UniProt P51817)
Chain of PRKX (P51817 whole entry): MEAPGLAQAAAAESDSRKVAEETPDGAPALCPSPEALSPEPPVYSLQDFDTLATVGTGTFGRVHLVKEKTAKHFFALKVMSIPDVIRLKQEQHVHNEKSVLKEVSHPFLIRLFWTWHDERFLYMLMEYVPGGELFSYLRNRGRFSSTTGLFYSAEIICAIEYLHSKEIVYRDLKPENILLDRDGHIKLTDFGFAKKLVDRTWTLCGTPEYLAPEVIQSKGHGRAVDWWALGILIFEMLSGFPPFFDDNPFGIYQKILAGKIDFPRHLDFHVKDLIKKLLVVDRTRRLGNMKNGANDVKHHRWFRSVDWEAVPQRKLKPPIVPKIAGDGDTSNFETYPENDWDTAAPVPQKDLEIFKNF

LKB1 = molecular target: T3, LKB1 (Homo sapiens, UniProt Q15831)
T3 construct: gene STK11

MST4 = molecular target: T4, MST4 (Homo sapiens, UniProt Q9P289)
T4 construct: gene STK26

ALK = ALK (Homo sapiens, UniProt Q9UM73)
DMPK2 = molecular target: T5, DMPK2 (Homo sapiens, UniProt Q6DT37)
T5 construct: gene CDC42BPG

MTOR = MTOR (Homo sapiens, UniProt P42345)
CASK = CASK (Homo sapiens, UniProt O14936)
MAP3K15 = MAP3K15 (Homo sapiens, UniProt Q6ZN16)
Chain of MAP3K15 (Q6ZN16 whole entry): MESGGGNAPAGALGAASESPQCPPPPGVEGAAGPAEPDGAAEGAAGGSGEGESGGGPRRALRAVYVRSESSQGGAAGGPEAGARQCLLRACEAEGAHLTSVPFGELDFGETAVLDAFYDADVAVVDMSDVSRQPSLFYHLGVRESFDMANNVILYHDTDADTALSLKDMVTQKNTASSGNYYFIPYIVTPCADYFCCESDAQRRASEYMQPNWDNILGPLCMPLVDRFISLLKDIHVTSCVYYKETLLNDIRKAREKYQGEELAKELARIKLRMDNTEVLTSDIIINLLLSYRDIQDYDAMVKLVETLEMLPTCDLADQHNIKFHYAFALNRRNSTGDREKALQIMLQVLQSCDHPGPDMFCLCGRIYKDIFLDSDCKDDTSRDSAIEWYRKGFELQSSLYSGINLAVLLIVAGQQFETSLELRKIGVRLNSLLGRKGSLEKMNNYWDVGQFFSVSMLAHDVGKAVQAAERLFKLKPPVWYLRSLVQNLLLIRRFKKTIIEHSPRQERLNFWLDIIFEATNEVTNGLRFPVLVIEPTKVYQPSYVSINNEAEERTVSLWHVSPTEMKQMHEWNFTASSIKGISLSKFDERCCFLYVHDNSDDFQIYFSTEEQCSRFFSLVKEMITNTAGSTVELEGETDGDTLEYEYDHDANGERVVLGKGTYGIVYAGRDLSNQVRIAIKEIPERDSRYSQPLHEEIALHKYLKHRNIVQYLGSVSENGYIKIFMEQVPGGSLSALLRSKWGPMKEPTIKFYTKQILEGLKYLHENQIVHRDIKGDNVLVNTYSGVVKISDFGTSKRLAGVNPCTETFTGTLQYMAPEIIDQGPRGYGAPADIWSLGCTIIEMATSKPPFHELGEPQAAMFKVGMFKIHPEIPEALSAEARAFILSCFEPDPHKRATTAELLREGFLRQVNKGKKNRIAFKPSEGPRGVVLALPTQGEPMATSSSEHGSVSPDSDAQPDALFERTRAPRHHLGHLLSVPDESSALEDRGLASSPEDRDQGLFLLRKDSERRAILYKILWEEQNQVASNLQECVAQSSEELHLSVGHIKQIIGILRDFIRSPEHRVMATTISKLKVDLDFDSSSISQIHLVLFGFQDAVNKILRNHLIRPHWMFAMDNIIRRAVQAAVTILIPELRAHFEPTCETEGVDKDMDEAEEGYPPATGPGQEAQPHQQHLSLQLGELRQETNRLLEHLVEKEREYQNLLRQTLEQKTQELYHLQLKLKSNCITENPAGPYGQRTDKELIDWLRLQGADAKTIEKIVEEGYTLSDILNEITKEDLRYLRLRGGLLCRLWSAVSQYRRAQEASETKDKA

SRMS = SRMS (Homo sapiens, UniProt Q9H3Y6)
PCTK3 = molecular target: T6, PCTK3 (Homo sapiens, UniProt Q07002)
T6 construct: gene CDK18

CAMKK1 = CAMKK1 (Homo sapiens, UniProt Q8N5S9)
MYLK4 = MYLK4 (Homo sapiens, UniProt Q86YV6)
[1] = molecular target: T7, RPS6KA5(Kin.Dom.1-N-terminal) (Homo sapiens, UniProt O75582)
T7 construct: Kin.Dom.1-N-terminal
T7 sequence (O75582 whole entry): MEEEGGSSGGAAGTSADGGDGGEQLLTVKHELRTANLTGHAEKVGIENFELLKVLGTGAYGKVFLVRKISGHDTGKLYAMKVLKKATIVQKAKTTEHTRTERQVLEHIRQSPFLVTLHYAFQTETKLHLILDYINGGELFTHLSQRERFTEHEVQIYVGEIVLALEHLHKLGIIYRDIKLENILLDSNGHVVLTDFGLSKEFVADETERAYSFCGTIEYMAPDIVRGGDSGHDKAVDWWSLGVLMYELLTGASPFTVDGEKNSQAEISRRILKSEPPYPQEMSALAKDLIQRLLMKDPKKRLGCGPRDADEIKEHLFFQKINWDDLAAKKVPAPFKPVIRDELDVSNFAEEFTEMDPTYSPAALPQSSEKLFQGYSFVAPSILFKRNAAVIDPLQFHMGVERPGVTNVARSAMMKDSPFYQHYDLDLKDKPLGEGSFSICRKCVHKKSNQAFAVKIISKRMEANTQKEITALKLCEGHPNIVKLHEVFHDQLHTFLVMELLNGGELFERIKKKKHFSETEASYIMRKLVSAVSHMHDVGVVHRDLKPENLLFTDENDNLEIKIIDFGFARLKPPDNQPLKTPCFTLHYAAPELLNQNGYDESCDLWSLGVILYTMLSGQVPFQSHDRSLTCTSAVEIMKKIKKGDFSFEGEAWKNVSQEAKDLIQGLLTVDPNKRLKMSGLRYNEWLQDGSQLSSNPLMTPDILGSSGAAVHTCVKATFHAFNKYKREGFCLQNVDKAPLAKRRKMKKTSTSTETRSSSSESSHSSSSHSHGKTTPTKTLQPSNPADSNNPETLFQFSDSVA

MEK4 = molecular target: T8, MEK4 (Homo sapiens, UniProt P45985)
T8 construct: gene MAP2K4

PKN1 = PKN1 (Homo sapiens, UniProt Q16512)
YANK2 = molecular target: T9, YANK2 (Homo sapiens, UniProt Q9NY57)
T9 construct: gene STK32B

PLK4 = PLK4 (Homo sapiens, UniProt O00444)
Chain of PLK4 (O00444 whole entry): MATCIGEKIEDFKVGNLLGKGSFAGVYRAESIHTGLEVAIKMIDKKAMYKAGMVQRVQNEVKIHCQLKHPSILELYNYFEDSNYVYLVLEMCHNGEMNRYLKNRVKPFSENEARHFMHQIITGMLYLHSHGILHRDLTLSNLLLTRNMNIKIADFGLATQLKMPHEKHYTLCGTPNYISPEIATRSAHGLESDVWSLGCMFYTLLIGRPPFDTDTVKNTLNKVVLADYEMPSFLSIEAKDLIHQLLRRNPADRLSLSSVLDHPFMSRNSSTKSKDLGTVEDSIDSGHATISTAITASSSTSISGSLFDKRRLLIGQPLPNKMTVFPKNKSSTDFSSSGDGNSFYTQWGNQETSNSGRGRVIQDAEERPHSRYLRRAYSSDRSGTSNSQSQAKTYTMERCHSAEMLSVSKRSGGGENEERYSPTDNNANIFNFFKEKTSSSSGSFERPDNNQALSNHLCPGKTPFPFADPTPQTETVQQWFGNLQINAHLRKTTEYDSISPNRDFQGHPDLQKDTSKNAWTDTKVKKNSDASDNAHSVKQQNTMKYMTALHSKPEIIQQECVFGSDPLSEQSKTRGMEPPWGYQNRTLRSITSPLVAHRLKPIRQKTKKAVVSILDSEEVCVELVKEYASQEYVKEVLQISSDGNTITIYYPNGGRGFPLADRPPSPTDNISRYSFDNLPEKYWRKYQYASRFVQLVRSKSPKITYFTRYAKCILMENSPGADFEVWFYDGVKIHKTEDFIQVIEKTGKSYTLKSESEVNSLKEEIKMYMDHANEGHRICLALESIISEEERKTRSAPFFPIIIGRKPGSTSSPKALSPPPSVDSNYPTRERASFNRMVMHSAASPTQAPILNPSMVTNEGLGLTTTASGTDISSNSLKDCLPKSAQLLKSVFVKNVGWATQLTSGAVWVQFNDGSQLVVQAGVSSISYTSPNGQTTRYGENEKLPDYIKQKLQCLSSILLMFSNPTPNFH

EPHA7 = EPHA7 (Homo sapiens, UniProt Q15375)
MAK = MAK (Homo sapiens, UniProt P20794)
SRPK3 = SRPK3 (Homo sapiens, UniProt Q9UPE1)
Chain of SRPK3 (Q9UPE1 whole entry): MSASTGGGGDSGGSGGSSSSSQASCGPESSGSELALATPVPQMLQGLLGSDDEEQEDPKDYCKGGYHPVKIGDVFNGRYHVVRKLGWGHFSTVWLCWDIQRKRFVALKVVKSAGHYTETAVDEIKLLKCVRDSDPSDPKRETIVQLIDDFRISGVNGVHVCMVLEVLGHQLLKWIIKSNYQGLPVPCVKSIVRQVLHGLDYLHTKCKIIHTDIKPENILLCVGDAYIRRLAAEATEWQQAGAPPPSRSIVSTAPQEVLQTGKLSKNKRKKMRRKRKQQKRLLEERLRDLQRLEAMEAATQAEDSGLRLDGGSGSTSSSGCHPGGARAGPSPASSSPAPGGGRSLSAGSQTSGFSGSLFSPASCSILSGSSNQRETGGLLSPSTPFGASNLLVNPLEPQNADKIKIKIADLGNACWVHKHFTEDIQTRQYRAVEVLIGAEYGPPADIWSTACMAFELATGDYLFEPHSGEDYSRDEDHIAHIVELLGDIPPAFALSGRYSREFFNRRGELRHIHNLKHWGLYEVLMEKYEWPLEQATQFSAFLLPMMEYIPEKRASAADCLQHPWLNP
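Also: KINOMEscan kinase panel binding assay, signal normalized between DMSO as 100% and a positive control compound as 0%.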

## Cc1cnc2nc1Nc1cccc(c1)COCc1cc(ccc1OCCN1CCCC1)N2 [Compound 1]
DAPK3
  remaining binding at 0.1 µM: 94%
SIK
  remaining binding at 0.1 µM: 100%
ERK8
  remaining binding at 0.1 µM: 99%
FLT3(ITD)
  remaining binding at 0.1 µM: 17%
MKNK1
  remaining binding at 0.1 µM: 93%
PRKX
  remaining binding at 0.1 µM: 76%
LKB1
  remaining binding at 0.1 µM: 100%
MST4
  remaining binding at 0.1 µM: 100%
ALK
  remaining binding at 0.1 µM: 79%
DMPK2
  remaining binding at 0.1 µM: 98%
MTOR
  remaining binding at 0.1 µM: 82%
CASK
  remaining binding at 0.1 µM: 73%
MAP3K15
  remaining binding at 0.1 µM: 68%
SRMS
  remaining binding at 0.1 µM: 75%
PCTK3
  remaining binding at 0.1 µM: 85%
CAMKK1
  remaining binding at 0.1 µM: 100%
MYLK4
  remaining binding at 0.1 µM: 84%
[1]
  remaining binding at 0.1 µM: 83%
MEK4
  remaining binding at 0.1 µM: 92%
PKN1
  remaining binding at 0.1 µM: 93%
YANK2
  remaining binding at 0.1 µM: 95%
PLK4
  remaining binding at 0.1 µM: 96%
EPHA7
  remaining binding at 0.1 µM: 98%
MAK
  remaining binding at 0.1 µM: 100%
SRPK3
  remaining binding at 0.1 µM: 82%
